Laboratory results as given in ChEMBL document CHEMBL4619777, “A New Class of Dengue and West Nile Virus Protease Inhibitors with Submicromolar Activity in Reporter Gene DENV-2 Protease and Viral Replication Assays” (J Med Chem, 2020).
pEC50, pIC50: −log10 of the molar value.

How the values were obtained:
[1] = Permeability of the compound assessed as drug level in acceptor plate at 200 uM measured after 5 hrs at pH 7.4 by PAMPA; format: ADME; conditions: pH 7.4, 5 h
[2] = Permeability of the compound assessed as drug level in donor plate at 200 uM measured after 5 hrs at pH 7.4 by PAMPA; format: ADME; conditions: pH 7.4, 5 h
[3] = Permeability of the compound at 200 uM measured after 5 hrs at pH 7.4 by PAMPA; format: ADME; conditions: read-out: permeability
[4] = Permeability of the compound assessed as mass retention at 200 uM measured after 5 hrs at pH 7.4 by PAMPA; format: ADME; conditions: pH 7.4, 5 h
[5] = target: Genome polyprotein (dengue virus type 2) (UniProt P29990); assay: Inhibition of Dengue virus serotype 2 NS2B-NS3 protease expressed in Escherichia coli BL21 lambda (DE3) cells at 50 uM using Abz-Nle-Lys-Arg-Arg-Ser-3-(NO2)Tyr as substrate preincubated for 15 mins followed by substrate addition and measured for 15 mins by FRET assay relative to control
Genome polyprotein [6] = target: T1, Genome polyprotein (dengue virus type 2, UniProt P29990); assay: Inhibition of Dengue virus serotype 2 NS2B-NS3 protease expressed in Escherichia coli BL21 lambda (DE3) cells using Abz-Nle-Lys-Arg-Arg-Ser-3-(NO2)Tyr as substrate preincubated for 15 mins followed by substrate addition and measured for 15 mins by FRET assay
[7] = target: Genome polyprotein (West Nile virus) (UniProt P06935); assay: Inhibition of West Nile virus NS2B-NS3 protease expressed in Escherichia coli BL21 lambda (DE3) cells at 50 uM using Abz-Gly-Leu-Lys-Arg-Gly-Gly-3-(NO2)Tyr as substrate preincubated for 15 mins followed by substrate addition measured for 15 mins by fluorimetric analysis relative to control
Genome polyprotein (West Nile virus), sequence (P06935 whole entry): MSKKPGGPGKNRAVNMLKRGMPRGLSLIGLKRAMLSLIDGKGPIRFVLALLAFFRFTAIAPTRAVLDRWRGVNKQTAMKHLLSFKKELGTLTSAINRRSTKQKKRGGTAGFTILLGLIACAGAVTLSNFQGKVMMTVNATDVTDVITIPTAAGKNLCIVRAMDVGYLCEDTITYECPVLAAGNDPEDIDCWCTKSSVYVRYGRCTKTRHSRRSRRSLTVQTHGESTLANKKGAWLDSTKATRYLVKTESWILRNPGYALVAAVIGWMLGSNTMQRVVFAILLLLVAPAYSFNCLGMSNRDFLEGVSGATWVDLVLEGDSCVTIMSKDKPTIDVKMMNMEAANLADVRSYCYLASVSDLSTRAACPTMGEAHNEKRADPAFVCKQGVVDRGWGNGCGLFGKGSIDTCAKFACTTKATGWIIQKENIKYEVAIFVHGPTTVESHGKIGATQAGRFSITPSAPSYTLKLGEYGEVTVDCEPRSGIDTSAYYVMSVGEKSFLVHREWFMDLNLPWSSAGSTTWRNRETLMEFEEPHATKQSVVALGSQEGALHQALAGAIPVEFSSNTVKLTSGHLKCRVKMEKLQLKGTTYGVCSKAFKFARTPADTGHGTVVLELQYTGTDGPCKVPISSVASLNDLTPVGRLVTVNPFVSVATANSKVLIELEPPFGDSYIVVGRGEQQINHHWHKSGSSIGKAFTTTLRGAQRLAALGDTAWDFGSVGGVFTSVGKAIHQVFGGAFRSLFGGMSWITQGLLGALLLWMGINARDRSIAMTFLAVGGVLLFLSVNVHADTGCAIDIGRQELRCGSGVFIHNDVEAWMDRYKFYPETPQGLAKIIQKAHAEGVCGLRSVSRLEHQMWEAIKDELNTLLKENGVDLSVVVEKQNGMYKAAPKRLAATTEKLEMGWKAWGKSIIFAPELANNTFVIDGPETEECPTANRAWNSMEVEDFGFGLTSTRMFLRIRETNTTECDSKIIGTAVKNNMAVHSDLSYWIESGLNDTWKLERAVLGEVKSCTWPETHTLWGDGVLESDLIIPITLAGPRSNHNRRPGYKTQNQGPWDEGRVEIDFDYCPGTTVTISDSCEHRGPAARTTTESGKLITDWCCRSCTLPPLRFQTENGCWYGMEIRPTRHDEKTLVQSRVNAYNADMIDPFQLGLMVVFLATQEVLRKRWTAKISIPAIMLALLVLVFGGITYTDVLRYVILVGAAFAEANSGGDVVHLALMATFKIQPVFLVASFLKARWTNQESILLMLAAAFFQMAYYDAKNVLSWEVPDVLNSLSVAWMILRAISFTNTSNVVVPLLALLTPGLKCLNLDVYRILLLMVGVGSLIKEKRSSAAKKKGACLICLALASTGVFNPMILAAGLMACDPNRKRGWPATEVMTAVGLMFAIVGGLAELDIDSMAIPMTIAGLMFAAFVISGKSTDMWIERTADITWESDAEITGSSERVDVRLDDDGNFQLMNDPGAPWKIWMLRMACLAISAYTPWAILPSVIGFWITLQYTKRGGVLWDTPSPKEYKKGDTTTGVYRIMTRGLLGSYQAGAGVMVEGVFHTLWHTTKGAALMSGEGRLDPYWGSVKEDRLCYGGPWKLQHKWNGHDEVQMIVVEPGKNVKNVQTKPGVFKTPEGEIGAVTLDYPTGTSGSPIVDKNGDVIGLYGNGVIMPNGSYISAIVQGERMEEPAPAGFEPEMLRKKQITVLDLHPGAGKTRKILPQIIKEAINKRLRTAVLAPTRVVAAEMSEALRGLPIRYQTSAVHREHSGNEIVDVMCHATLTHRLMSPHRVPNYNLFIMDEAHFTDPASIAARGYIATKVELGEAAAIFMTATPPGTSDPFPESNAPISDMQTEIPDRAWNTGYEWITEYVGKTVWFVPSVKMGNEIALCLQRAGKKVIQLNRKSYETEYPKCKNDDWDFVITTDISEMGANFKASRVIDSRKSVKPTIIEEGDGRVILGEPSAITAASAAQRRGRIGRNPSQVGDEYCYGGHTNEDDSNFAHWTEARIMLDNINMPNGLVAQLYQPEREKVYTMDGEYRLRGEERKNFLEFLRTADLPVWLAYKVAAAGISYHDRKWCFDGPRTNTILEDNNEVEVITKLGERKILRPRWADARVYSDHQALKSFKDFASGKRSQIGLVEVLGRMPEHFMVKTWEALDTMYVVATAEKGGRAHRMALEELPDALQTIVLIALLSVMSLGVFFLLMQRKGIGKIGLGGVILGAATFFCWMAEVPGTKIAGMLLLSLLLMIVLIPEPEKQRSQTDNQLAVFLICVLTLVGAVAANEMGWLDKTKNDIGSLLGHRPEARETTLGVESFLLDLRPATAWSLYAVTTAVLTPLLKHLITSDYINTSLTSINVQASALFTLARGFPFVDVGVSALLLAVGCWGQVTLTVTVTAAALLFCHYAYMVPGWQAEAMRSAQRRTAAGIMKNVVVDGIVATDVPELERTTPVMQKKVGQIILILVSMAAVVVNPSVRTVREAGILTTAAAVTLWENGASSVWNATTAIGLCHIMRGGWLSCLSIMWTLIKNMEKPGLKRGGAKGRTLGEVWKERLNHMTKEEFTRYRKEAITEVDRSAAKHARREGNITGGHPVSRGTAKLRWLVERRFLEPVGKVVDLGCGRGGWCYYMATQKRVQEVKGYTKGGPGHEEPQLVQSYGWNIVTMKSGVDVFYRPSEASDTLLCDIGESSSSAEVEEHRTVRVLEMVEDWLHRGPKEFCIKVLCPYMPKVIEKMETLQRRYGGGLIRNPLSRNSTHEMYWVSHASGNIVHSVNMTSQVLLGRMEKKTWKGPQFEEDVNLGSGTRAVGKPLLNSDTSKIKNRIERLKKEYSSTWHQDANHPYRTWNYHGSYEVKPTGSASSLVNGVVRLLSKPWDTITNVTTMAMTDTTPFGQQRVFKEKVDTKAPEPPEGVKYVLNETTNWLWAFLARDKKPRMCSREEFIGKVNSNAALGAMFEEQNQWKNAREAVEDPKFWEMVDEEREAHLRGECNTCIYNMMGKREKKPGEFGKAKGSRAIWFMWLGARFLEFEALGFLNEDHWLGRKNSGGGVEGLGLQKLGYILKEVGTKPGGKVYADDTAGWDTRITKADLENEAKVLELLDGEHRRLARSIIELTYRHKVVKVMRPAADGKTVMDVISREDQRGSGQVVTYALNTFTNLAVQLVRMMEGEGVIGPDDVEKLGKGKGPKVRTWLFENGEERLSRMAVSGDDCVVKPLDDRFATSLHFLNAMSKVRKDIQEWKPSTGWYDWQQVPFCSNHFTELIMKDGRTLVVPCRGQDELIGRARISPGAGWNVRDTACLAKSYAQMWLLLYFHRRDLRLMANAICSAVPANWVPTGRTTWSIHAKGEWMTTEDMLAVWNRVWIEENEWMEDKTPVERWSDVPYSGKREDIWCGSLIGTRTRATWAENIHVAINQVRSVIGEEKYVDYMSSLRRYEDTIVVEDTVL

Genome polyprotein [8] = target: Genome polyprotein (West Nile virus, UniProt P06935); assay: Inhibition of West Nile virus NS2B-NS3 protease expressed in Escherichia coli BL21 lambda (DE3) cells using Abz-Gly-Leu-Lys-Arg-Gly-Gly-3-(NO2)Tyr as substrate preincubated for 15 mins followed by substrate addition measured for 15 mins by fluorimetric analysis
Genome polyprotein (West Nile virus, UniProt P06935), sequence (P06935 1371-1501 limits assumed): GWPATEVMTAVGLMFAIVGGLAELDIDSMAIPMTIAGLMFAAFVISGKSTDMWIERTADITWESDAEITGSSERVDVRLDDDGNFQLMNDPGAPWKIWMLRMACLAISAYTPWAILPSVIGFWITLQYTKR
Genome polyprotein (West Nile virus, UniProt P06935), sequence (P06935 1502-2120 limits assumed): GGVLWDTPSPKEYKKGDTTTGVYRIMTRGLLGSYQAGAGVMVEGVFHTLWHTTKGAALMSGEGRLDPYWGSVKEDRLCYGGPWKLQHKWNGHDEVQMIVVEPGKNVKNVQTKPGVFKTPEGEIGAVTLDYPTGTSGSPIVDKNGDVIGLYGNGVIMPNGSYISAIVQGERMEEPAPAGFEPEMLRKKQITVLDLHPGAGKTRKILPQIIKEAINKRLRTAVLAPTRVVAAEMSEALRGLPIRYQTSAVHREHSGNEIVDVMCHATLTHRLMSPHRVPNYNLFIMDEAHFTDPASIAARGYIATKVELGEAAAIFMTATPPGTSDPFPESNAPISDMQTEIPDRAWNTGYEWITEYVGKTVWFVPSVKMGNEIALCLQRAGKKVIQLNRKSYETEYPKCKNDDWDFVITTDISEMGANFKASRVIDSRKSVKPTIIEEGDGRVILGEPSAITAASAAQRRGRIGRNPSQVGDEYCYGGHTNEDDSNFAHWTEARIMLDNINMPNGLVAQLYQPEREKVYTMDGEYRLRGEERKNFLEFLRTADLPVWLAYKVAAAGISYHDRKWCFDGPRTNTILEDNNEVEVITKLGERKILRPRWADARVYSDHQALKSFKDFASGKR

[9] = target: Genome polyprotein (dengue virus type 2) (UniProt P29990); assay: Inhibition of Dengue virus serotype 2 NS2B-NS3 protease transfected in human HeLa cells at 12.5 uM measured after 24 hrs by Renilla-luciferase reporter gene assay relative to control; format: cell-based
Genome polyprotein [10] = target: T1, Genome polyprotein; assay: Inhibition of Dengue virus serotype 2 NS2B-NS3 protease transfected in human HeLa cells measured after 24 hrs by Renilla-luciferase reporter gene assay; format: cell-based
[11] = Cytotoxicity against human HeLa cells assessed as reduction in cell viability measured after 24 hrs by celltiter-blue assay; format: cell-based
Trypsin = Trypsin (Homo sapiens, UniProt P07477+P07478+P35030); assay: Inhibition of trypsin (unknown origin) at 50 uM using Boc-Val-Pro-Arg-AMC as substrate preincubated for 15 mins followed by substrate addition and measured for 15 mins by fluorimetric assay relative to control; format: protein assay; conditions: 0.25 h, 50 µM
Prothrombin = Prothrombin (Homo sapiens, UniProt P00734); assay: Inhibition of thrombin (unknown origin) at 25 uM using Boc-Val-Pro-Arg-AMC as substrate preincubated for 15 mins followed by substrate addition and measured for 15 mins by fluorimetric assay; conditions: 0.25 h
Huh-7 = assay: Cytotoxicity against human HuH7 cells assessed as reduction in cell viability at 12 uM measured after 48 hrs by celltiter-blue assay; format: cell-based; conditions: huh-7, 48 h
dengue virus type 2 = assay: Antiviral activity against DENV2 infected in human HuH7 cells assessed as reduction in virus titer at 12.5 uM measured after 48 hrs relative to control; format: functional; conditions: Huh-7, 48 h

Compound	Drug uptake [1]	Drug uptake [2]	Papp at 5 h, 200 µM [3]	R% [4]	inhibition [5]	pIC50 (Genome polyprotein [6])	inhibition [7]	pIC50 (Genome polyprotein [8])	inhibition [9]	pEC50 (Genome polyprotein [10])	CC50 at 24 h [11]	inhibition (INH) (Trypsin)	inhibition (INH) (Prothrombin)	Activity (Huh-7)	inhibition at 12.5 µM (dengue virus type 2)	Drug uptake ([2]; BLD = below limit of detection)
Cn1c(=O)c2c(ncn2C)n(C)c1=O [CAFFEINE]	31.9 µM	159.5 µM	77 nm/s	9.6%												
O=C1NC(=O)C(c2ccccc2)(c2ccccc2)N1 [PHENYTOIN]	23.4 µM	149.6 µM	60 nm/s	17.4%												
CCCCCC(=O)N[C@H](C(=O)NCc1ccc(CNC(=N)N)cc1)c1ccc(OCc2ccccc2)cc1.O=C(O)C(F)(F)F					104%	4.85	98.6%	4.43	66.3%	5.20	> 50 µM	Not Active	Not Active	Non-Toxic	79.5%	
N=C(N)NCc1ccc(CNC(=O)[C@H](NC(=O)c2ccc(Oc3ccccc3)cc2)c2ccc(OCc3ccc(Cl)c(Cl)c3)cc2)cc1.O=C(O)C(F)(F)F					99.8%	5.60	99.6%	5.26	36%		> 50 µM	Not Active	Not Active			Bld
CCCCCC(=O)N[C@H](C(=O)NCc1cccc(CN)c1)c1ccc(OCc2ccccc2)cc1					97.2%	4.52	85.4%	4.57	71%	5.38	> 12.5 µM	Not Active	Not Active			
N=C(N)Nc1ccc(CNC(=O)[C@@H](NC(=O)c2ccc(OCc3ccccc3)cc2)c2ccc(OCc3ccccc3)cc2)cc1.O=C(O)C(F)(F)F					106%	5.36	98.7%	5.15	69.8%	5.68	> 12.5 µM	Not Active	Not Active	Non-Toxic	27.4%	Bld
CCCCCC(=O)N[C@H](C(=O)NCCCCCCNC(=N)N)c1ccc(OCc2ccccc2)cc1					< 10%		28.3%		61%	5.11	> 50 µM	Not Active	Not Active			
CCCCCC(=O)N[C@H](C(=O)Nc1ccc2[nH]ncc2c1)c1ccc(OCc2ccccc2)cc1					22.4%		26%		65.4%	5.16	> 50 µM	Not Active	Not Active			
CCCCCC(=O)N[C@H](C(=O)NCc1ccc(NC(=N)N)nc1)c1ccc(OCc2ccccc2)cc1.O=C(O)C(F)(F)F					93.9%	4.72	96.8%	4.64	67.7%	5.23	> 50 µM	Not Active	Not Active	Non-Toxic	31.5%	
N=C(N)Nc1ccc(CNC(=O)[C@@H](NC(=O)c2cccc(Oc3ccccc3)c2)c2ccc(OCc3ccccc3)cc2)cc1.O=C(O)C(F)(F)F	1.1 µM	168.9 µM	2 nm/s	15.2%	101%	5.31	99.8%	5.21	67.5%	5.14	> 25 µM	Not Active	Not Active			
CCCCCCCCCC(=O)N[C@H](C(=O)NCc1ccc(NC(=N)N)cc1)c1ccc(OCc2ccccc2)cc1.O=C(O)C(F)(F)F					99.8%	5.64	102%	5.30	65.8%	5.64	> 50 µM	Not Active	Not Active			Bld
N=C(N)Nc1ccc(CNC(=O)[C@@H](NC(=O)Cc2ccc(-c3ccccc3)cc2)c2ccc(OCc3ccccc3)cc2)cc1.O=C(O)C(F)(F)F					101%	5.89	99.3%	5.74	16.3%	4.70	> 50 µM	Not Active	Not Active			Bld
CCCCCC(=O)N[C@@H](C(=O)NCc1ccc(NC(=N)N)cc1)c1ccc(OCc2ccc(Cl)c(Cl)c2)cc1.O=C(O)C(F)(F)F					97.3%	5.24	101%	5.08	51%	4.80	> 50 µM	Not Active	Not Active			
COc1cccc(COc2ccc(C(=O)N[C@H](C(=O)NCc3ccc(NC(=N)N)cc3)c3ccc(OCc4ccccc4)cc3)cc2)c1.O=C(O)C(F)(F)F					98.4%	5.33	102%	5.13	67.6%	5.54	> 12.5 µM	Not Active	Not Active	Non-Toxic	21.9%	Bld
CCCCCC(=O)N[C@H](C(=O)NCc1ccc(NC(=N)N)cc1)c1ccc(OCc2c(Cl)cccc2Cl)cc1.O=C(O)C(F)(F)F					97.5%	5.54	101%	5.21	41.5%		> 50 µM	Not Active	Not Active			Bld
N=C(N)Nc1ccc(CNC(=O)[C@@H](NC(=O)c2ccc(-c3ccc(Cl)cc3)cc2)c2ccc(OCc3ccccc3)cc2)cc1.O=C(O)C(F)(F)F					98.7%	5.70	99.9%	5.43	56.6%	5.15	> 50 µM	Not Active	Not Active	Non-Toxic	79.9%	
CCCCCC(=O)N[C@H](C(=O)NCCCCCCN)c1ccc(OCc2ccccc2)cc1					18.1%		< 10%		45.8%	4.89	> 50 µM	Not Active	Not Active			
CCCCC(=O)N[C@H](C(=O)NCc1ccc(NC(=N)N)cc1)c1ccc(OCc2ccccc2)cc1.O=C(O)C(F)(F)F					22%		11.2%		69.4%	5.55	> 50 µM	Not Active	Not Active			
NC(=O)N1c2ccccc2C=Cc2ccccc21 [CARBAMAZEPINE]	35.7 µM	171.6 µM	81 nm/s	2.3%												
CCCCCC(=O)N[C@H](C(=O)NCc1ccc(CN(C)C)cc1)c1ccc(OCc2ccccc2)cc1					< 10%		< 10%		65.7%	5.17	> 12.5 µM	Not Active	Not Active			
CCCCCC(=O)N[C@H](C(=O)NCc1ccc(NC(=N)N)cc1)c1ccc(OCc2ccc(C(F)(F)F)cc2)cc1.O=C(O)C(F)(F)F					96.3%	5.13	100%	4.92	66%	5.52	> 50 µM	Not Active	Not Active	Non-Toxic	60.3%	
